Test results reported in PubChem BioAssay AID540268 (Broad Institute, 2011).
Active and inactive are the calls of the source. How the calls were made is not given here.

Assay: reduced viability of parasite-Hsp90 expressing yeast – ATP luminescence, 48 h, cherry-picked samples, anti-malarial Hsp90 inhibitor project, dose response (AID 540268);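 on activity change, negative = inhibition: 0% = neutral control wells and -100% = positive control wells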
Conditions: yeast expressing the parasite Hsp90, ATP luminescence; for activity change, negative = inhibition: at 26 µM (top of the series)

Structure (SMILES)	AC50 [µM]	activity change, negative = inhibition
Oc1c(Cl)cccc1Cc1cc(Cl)cc(Cl)c1O	0.618	
O=C1NC(=S)S/C1=C\c1cc2ccccc2nc1N1CCCCC1	8.4	
Cc1ccc(S(=O)(=O)Nc2ccc3cc([N+](=O)[O-])ccc3c2[N+](=O)[O-])cc1	11.9	
CCCCCCCCCCOC(=O)Cn1c(COc2ccc(Cl)cc2)[n+](C)c2ccccc21	4.25	
Cn1nnnc1N=N/C(=N/Nc1ccccc1)c1ccccc1	3.2	
Cc1ccc(CNC(=O)c2ccc(Cn3nc(C)c(Cl)c3C)o2)cc1	7.23	
CC1(C)C=Cc2c(ccc3c2OC[C@H](c2ccc(O)cc2O)C3)O1	4.6	
Cc1ccc(N2C(=O)C3C4C=CC(CNC(=S)Nc5ccc(F)cc5)(O4)C3C2=O)cc1 (centres undefined)		9.97% (inactive)
O=C1c2cc(F)ccc2-n2c1nc1ccccc1c2=O	2.96	
O=C(Nc1nc(-c2ccccc2)cs1)c1ccccc1NS(=O)(=O)c1ccc(F)cc1	4.09	
COc1cc2cc(C(=O)N3CC(COS(C)(=O)=O)c4ccc(O)cc43)[nH]c2c(OC)c1OC (centres undefined)	1.55	
CCC(=O)NC(c1ccc(Cl)cc1Cl)c1ccc2cccnc2c1O (centres undefined)	3.96	
O=C(Nc1cc(Cl)ccc1-n1cncn1)c1ccc([N+](=O)[O-])s1	4.2	
Cc1ccc(NC(=O)c2cc(N3C(=O)C=CC3=O)ccc2Cl)cc1C	0.92	
O=C1CC(N2CCCCCC2)C(=O)N1c1ccc2c(c1)OCO2 (centres undefined)	4.12	
CC(=O)OC1(C)CC(C)C(=O)C(C(O)CC2CC(=O)NC(=O)C2)C1 (centres undefined)	< 0.195	
Cc1ccc(-c2nc3cccnc3s2)cc1NS(=O)(=O)c1ccc2c(c1)OCCO2	4.12	
COc1ccc2c(c1)CCc1c(C(=O)N3CCc4ccccc4C3)noc1-2	4.5	
COc1ccc(C(=O)NC(=S)NNC(=O)c2cnccn2)cc1	2.98	
O=C1c2ccccc2NC(c2ccc(-c3ccc(Br)cc3)o2)N1O (centres undefined)	7.96	
O=C(/C=C/c1ccccc1[N+](=O)[O-])c1ccccc1Br	3.2	
COc1cccc(-c2nc(NC3CCCC3)c3ccccc3n2)c1O	4.23	
O=C(N/N=C/c1ccccn1)c1cc(-c2ccc(Br)cc2)nc2ccccc12	5.33	

Structure (SMILES)	AC50 [µM]	activity change, negative = inhibition
Cc1ccc(S(=O)(=O)c2ccc([N+](=O)[O-])cn2)cc1	3.87	
COc1ccc(S(=O)(=O)NC2CC3CCC2C3)cc1Cl (centres undefined)	1.56	
COc1ccc(NC(=O)c2sc3ncnc(N4CCN(c5ccccn5)CC4)c3c2C)cc1Cl	3.46	
O=c1cc(-c2ccccc2)cc(-c2ccccc2)n1O	1.17	
CC(=O)Nc1ccc2c(c1)Cc1cc(N3C(=O)C=CC3=O)ccc1-2	0.654	
CCCC(=O)NC(c1ccc(C)cc1)c1ccc2cccnc2c1O (centres undefined)	3.4	
Cc1cccc(C)c1NC(=O)COC(=O)c1ccc([N+](=O)[O-])o1		-33.6% (inactive)
Cc1ccc(N=Cc2c(C)[nH]n(-c3nc4ccccc4[nH]3)c2=O)cc1	2.4	
CC(=O)NC(c1ccccc1)c1cc(Cl)c2cccnc2c1O (centres undefined)	7.28	
Cc1ccc(NN2C(=O)C=C(c3ccc(Cl)cc3)C2=O)cc1	< 0.195	
O=[N+]([O-])c1cccc(C=NNc2ccc3ccccc3n2)c1O	3.63	
Oc1ccc(N=Nc2ccc3ccccc3c2)cc1	4.26	
CCc1ccc2c(c1)/C(=C/C(=O)c1cccs1)C(=O)N2	4.7	
OCCOCCn1c(C2CCCN2c2nc(-c3ccc(F)cc3)cs2)nc2cc(C(F)(F)F)ccc21 (centres undefined)	7.92	
CCN1CCCC1CN(Cc1cc2ccc(C)cc2[nH]c1=O)C(=S)Nc1ccc(F)cc1 (centres undefined)	3.2	
Cc1cccnc1Nc1nc(-c2ccccn2)cs1	4.32	
Cc1cc(/C=C\c2ccc3cc(N(C)C)ccc3[n+]2C)c(C)n1-c1ccccc1	4.39	
C(=NN=C1c2ccccc2-c2ccccc21)c1c[nH]c2ccccc12	2.72	
O=C1/C(=C\c2cccc(O)c2O)SC(=S)N1Cc1ccccc1	9.6	
Cc1ccc(O)c(-c2cc(-c3cccc(F)c3)n[nH]2)c1	17.2	
O=C(/C=C/c1ccccc1)CCN1CCCCC1	4.02	
COc1ccccc1OCCNC(=O)c1ccc(Br)cc1	< 0.195	
CC(C)Oc1ccc(C(=O)/C=C2/C(=O)Nc3ccccc32)cc1	2.62	

Structure (SMILES)	AC50 [µM]	activity change, negative = inhibition
Clc1ccccc1C(c1ccccc1)(c1ccccc1)n1ccnc1	< 0.195	
O=C1C=CC(=O)N1CCCCCCCCCCN1C(=O)C=CC1=O	0.837	
Nc1cc2c(cc1[N+](=O)[O-])-c1ccccc1C2=NO	8.64	
O=C(Nc1nc(-c2ccco2)c(-c2ccco2)s1)c1ccco1	6.08	
Cc1[nH]c(N=Nc2ccccc2)nc1N=Nc1ccccc1	4.41	
CC(=O)SC(C[N+](=O)[O-])c1cn(C(C)=O)c2ccccc12 (centres undefined)	1.57	
O=C1C=CC(=O)N1c1ccc2ccccc2c1	0.568	
CCN(CC)c1ccc(C(=C2C=CC(=[N+](CC)CC)C=C2)c2ccc(N(CC)CC)cc2)cc1	0.735	
c1ccc(C(=NNc2nc3ccccc3s2)c2ccccn2)cc1	22.3	
CC1=NNC(=O)/C1=C\c1cn(-c2ccccc2)nc1-c1cccs1	4.87	
CCCCCC(=O)N(O)C1CC(=O)N(c2ccccc2)C1=O (centres undefined)	1.13	
COc1ccc(N2CCN(c3c(S(=O)(=O)c4ccccc4)cnc4ccc(OC)cc34)CC2)cc1	3.9	
CCCOc1ccc(N2C(=O)CC(N3CCC(C(=O)OCC)CC3)C2=O)cc1 (centres undefined)	6.07	
O=C(c1ccc(Br)cc1)C(CN1CCOCC1)c1ccccc1 (centres undefined)	2.91	
O=C(N/N=C/c1sc2ccccc2c1O)c1ccccc1	1.13	
O=[N+]([O-])/C=C\c1ccc(N2CCCC2)c(F)c1	6.27	
CCOC(=O)c1cc([N+](=O)[O-])cc([N+](=O)[O-])c1Sc1ncnc2nc[nH]c12		-6.96% (inactive)
O=C(/C(=C/c1ccc(Cl)cc1)c1nc2ccccc2[nH]1)c1ccccc1	7.04	
Cc1cccc(N=Nc2ccc(O)c3ncccc23)c1	2.25	
Cc1cccc(Nc2nc(N)c([N+](=O)[O-])c(N3CCCC(C)C3)n2)c1 (centres undefined)	2.03	
CC(=NNC(=S)N(Cc1ccccn1)Cc1ccccn1)c1cnccn1	3.95	
O=C(/C(=C/O)N=Nc1cccc(C(F)(F)F)c1)c1ccccc1	4.14	
C(C#CCCCCCCCCC[n+]1ccccc1)#CCCCCCCCCC[n+]1ccccc1	4.06	

Structure (SMILES)	AC50 [µM]	activity change, negative = inhibition
O=c1c(Br)ccc(Br)cc1Br	0.38	
Nc1ccccc1C#CC(=O)c1ccccc1	7.65	
COc1ccc2c(c1)[C@H]1[C@H](CO2)[C@H](c2ccccc2)[C@]2(C)C(=O)Nc3ccc(C)cc3C(=O)N12	4.75	
O=C1c2cc(Cl)ccc2-c2c(O)cc(Cl)cc21	1.4	
O=C(/C=C/c1cccc(C(F)(F)F)c1)Nc1cccc(C(F)(F)F)c1	8.08	
Cc1ccc2nc(-c3cccc(NS(C)(=O)=O)c3)cc(-c3ccccc3)c2c1	9.6	
O=C(CCSc1nnc(-c2ccncc2)o1)Nc1ccc(Cl)cc1	2.87	
Cc1ccc(C(=O)OCn2ncc(Cl)c(Cl)c2=O)cc1	3.23	
C/C(CC(=O)Nc1cc(C)ccn1)=N\NC(=O)c1cccc(C)c1O		-51.7% (inactive)
Cc1csc(CNc2ncnc3ccc(-c4cccc(Cl)c4)cc23)c1	8.17	
COc1cc(N(C)C)ccc1C=c1c2ccccc2n2c1cc(-c1ccccc1)[n+]2C	7.55	
CCCC(=O)NC(c1ccc(Cl)cc1)c1ccc2cccnc2c1O (centres undefined)	7.47	
CCCCC(=O)NC(c1ccccc1OC)c1ccc2cccnc2c1O (centres undefined)	4.45	
Cc1ccc(N2C(=O)C3C4C=CC(CNC(=S)N5CCN(c6ccccn6)CC5)(O4)C3C2=O)cc1 (centres undefined)	8.31	
C=CCc1c(C)c(C#N)c2nc3ccccc3n2c1NCCN(C)C	4.58	
Cc1ccc(NC(=S)NCC23C=CC(O2)C2C(=O)N(c4ccc(C)cc4)C(=O)C23)cc1 (centres undefined)	8.61	
O=C1/C(=C/c2ccncc2)CCC/C1=C\c1ccncc1	4.25	
COCC(=O)n1nc(NCc2ccc(OC)cc2)nc1NCc1ccc(OC)cc1	8.06	
Cn1c2ccccc2c2ccc3c(c21)C(=O)C=CC3=O	8.02	
O=C1OC(c2ccccc2)(c2ccc3cc(O)ccc3c2)c2ccccc21 (centres undefined)	9.13	
Clc1ccc(N=c2ssnc2Cl)nc1	3.19	
OC(Cn1cncn1)(c1ccc(F)cc1)c1ccc(Cl)cc1 (centres undefined)	< 0.195	
O=C(OCC(=O)c1c[nH]c2ccccc12)c1ccc([N+](=O)[O-])s1	4.09	

Structure (SMILES)	AC50 [µM]	activity change, negative = inhibition
O=C1S/C(=C/c2ccc(N3CCOCC3)o2)C(=O)N1Cc1c(F)cccc1Cl		23.4% (inactive)
COc1ccc(C(C)(C)C)cc1NC(=O)Nc1ccc2c(c1)OCO2	8.96	
CC1Oc2cc3oc4c(O)c(O)ccc4c(=O)c3c(O)c2C1(C)C (centres undefined)		-0.538% (inactive)
O=C(O)c1cccc(N/N=C/c2cc(Br)cc(Br)c2O)c1	1.15	
Cc1cccc(C)c1NC(=O)C(Cl)C(=O)c1ccccc1 (centres undefined)	1.11	
CCCCCCOc1ccc(N2C(=O)CC(N3CCC(C(=O)OCC)CC3)C2=O)cc1 (centres undefined)	4.38	
COc1ccc(CCN2C(=O)C=CC2=O)cc1OC	1.41	
O=C(O)c1cccc2c1Cc1cc(Cl)ccc1-2	1.13	
O=C(OCc1ccccc1)c1ccc(NCc2cc(O)ccc2O)cc1	5.09	
N/C(Cc1ccc(Cl)c(Cl)c1)=N\OC(=O)c1cccs1	2.22	
CCCC(=O)NC(c1ccc2c(c1)OCO2)c1cc(Cl)c2cccnc2c1O (centres undefined)	4.45	
Oc1c(C(c2ccccc2Cl)N2CCCC2)ccc2cccnc12 (centres undefined)	3.51	
Cc1cc(-c2n[nH]c(=S)n2/N=C/C(Br)=C/c2ccccc2)n[nH]1	15	
Cc1cc(Br)c2c(c1)/C(=C/C(=O)c1cccs1)C(=O)N2		-12.3% (inactive)
CC(C)CC(=O)NC(c1cccs1)c1ccc2cccnc2c1O (centres undefined)	2.72	
Oc1c(CN2CCN(c3ccc(F)cc3)CC2)cc(Cl)c2cccnc12	< 0.195	
O=[N+]([O-])c1cc(Br)c(Nc2ccccc2)c([N+](=O)[O-])c1	8.53	
CCCCNc1nc(N)nc(-c2cc(Cl)ccc2O)n1	4.58	
CCc1sc(C(=O)Nc2nc(-c3ccccn3)cs2)cc1C	8.12	
CC(C)c1c(O)ccc2c1CC[C@H]1C(C)(C)CCC[C@]21C	2.86	
O=c1[nH]c(-c2ccccn2)nc(C(F)(F)F)c1Br	4	
CCOc1ccccc1-c1c2cc(O)c(=O)cc-2oc2cc(O)c(O)cc12	4.21	
